Source: patent US12612413B2, “Heteroaryl compounds as inhibitors of programmed necrosis pathway, composition and method using the same” (ACCRO BIOSCIENCE INC., priority 2020, dated 2026)
Counter-ions that a name gives are not always drawn.

System: HT-29 cells
Experiment: HT-29 cell viability (necroptosis) assay
Assay type: cell-based
Conditions: Homo sapiens, TNF-α (40 ng/mL), Smac mimetic (100 nM), z-VAD (20 μM), 40 h, from survival rate curve
Experimental: (§1) Human colon cancer HT-29 cells were used in a necroptosis assay. For this assay, HT-29 cells were added to 96-well plates. The compounds at different concentrations (0.3, 1.0, 3.0, 10.0, 20.0 μM) were then preprocessed for two hours. TNF-α (40 ng/mL), Smac mimetic (100 nM) and z-VAD (20 μM) were added, and the mixture was incubated for 40 h. Quantitative analysis of cell viability was conducted. DMSO pretreatment group was used as a negative control. Concentration for 50% of maximal effect was calculated according to the curve of the survival rate measured at different concentrations. FIG. 1 depicts the EC50 curves of compound A16.

| Compound | EC50 [nM] |
| --- | --- |
| COCCOC1=CS(=O)(=O)c2cc3c(Nc4ccc5scnc5c4)ccnc3cc21 [Compound A17] | 260 |
| CC1=CS(=O)(=O)c2cc3c(Nc4ccc5scnc5c4)ccnc3cc21 [Compound A7] | 380 |
| O=S1(=O)C=C(c2ccccc2)c2cc3nccc(Nc4ccc5scnc5c4)c3cc21 [Compound A22] | 450 |
| CC(C)OC1=CS(=O)(=O)c2cc3c(Nc4ccc5scnc5c4)ccnc3cc21 [Compound A14] | 280 |
| O=S1(=O)C=C(c2ccc(O)cc2)c2cc3nccc(Nc4ccc5scnc5c4)c3cc21 [Compound A24] | 500 |
| O=S1(=O)C=C(C2CC2)c2cc3nccc(Nc4cc(O)c(Cl)cc4F)c3cc21 [Compound A101] | 400 |
| CC1(C)C(=O)c2cc3nccc(Nc4cc(O)c(F)cc4F)c3cc2S1(=O)=O [Compound B15] | 720 |
| CN1CCC(OC2=CS(=O)(=O)c3cc4c(Nc5ccc6scnc6c5)ccnc4cc32)C1 (stereo not shown) [Compound A114] | 310 |
| CC1(C)C(=O)c2cc3nccc(Nc4ccc5scnc5c4)c3cc2S1(=O)=O [Compound B4, 8-(benzo[d]thiazol-5-ylamino)-2,2-dimethylthieno[2,3-g]quinolin-3(2H)-one 1,1-dioxide] | 2080 |
| O=S1(=O)C=C(c2ccncc2)c2cc3nccc(Nc4ccc5scnc5c4)c3cc21 [Compound A28] | 1010 |
| CC(C)C1=Cc2cc3nccc(Nc4ccc5scnc5c4)c3cc2S1(=O)=O [Compound A5] | 760 |
| Cn1ccc(C2=CS(=O)(=O)c3cc4c(Nc5ccc6scnc6c5)ccnc4cc32)n1 [Compound A33] | 350 |
| CC1(C)C(=O)c2cc3nccc(Nc4cc(O)c(Cl)cc4F)c3cc2S1(=O)=O [Compound B16] | 1260 |
| Cc1ccc(O)cc1Nc1ccnc2cc3c(cc12)S(=O)(=O)C=C3 [Compound A107] | 1060 |
| CC1(C)C(O)c2cc3nccc(Nc4ccc5scnc5c4)c3cc2S1(=O)=O (stereo not shown) [Compound B9] | 620 |
| C=C1c2cc3nccc(Nc4ccc5scnc5c4)c3cc2S(=O)(=O)C1(C)C [Compound B8, 8-(benzo[d]thiazol-5-ylamino)-2,2-dimethyl-3-methylene-2,3-dihydrothieno[2,3-g]quinoline 1,1-dioxide] | 930 |
| O=S1(=O)C=C(C2CC2)c2cc3nccc(Nc4cc(O)ccc4F)c3cc21 [Compound A89] | 220 |
| CCC1=Cc2cc3nccc(Nc4ccc5scnc5c4)c3cc2S1(=O)=O [Compound A4] | 980 |
| CC1=Cc2cc3nccc(Nc4ccn5ccnc5c4)c3cc2S1(=O)=O [Compound A67, 8-(imidazo[1,2-a]pyridin-7-ylamino)-2-methylthieno[2,3-g]quinoline 1,1-dioxide] | 5710 |
| O=S1(=O)C=C(NCCO)c2cc3nccc(Nc4ccc5scnc5c4)c3cc21 [Compound A18] | 310 |
| CC(C)OC1=Cc2cc3nccc(Nc4ccc5scnc5c4)c3cc2S1(=O)=O [Compound A15] | 500 |
| O=C1CS(=O)(=O)c2cc3c(Nc4ccc5scnc5c4)ccnc3cc21 [Compound B3, 8-(benzo[d]thiazol-5-ylamino)thieno[2,3-g]quinolin-3(2H)-one 1,1-dioxide hydrochloride] | 3240 |
| CC1=C(C)S(=O)(=O)c2cc3c(Nc4ccc5scnc5c4)ccnc3cc21 [Compound A8] | 530 |
| Cc1ccc(O)cc1Nc1ccnc2cc3c(cc12)S(=O)(=O)C=C3C1CC1 [Compound A95] | 300 |
| CC1=Cc2cc3nccc(Nc4n[nH]c5ccc(F)cc45)c3cc2S1(=O)=O [Compound A36] | 5790 |
| O=S1(=O)C=C(O[C@H]2CCOC2)c2cc3nccc(Nc4ccc5scnc5c4)c3cc21 [Compound A117] | 390 |
| O=S1(=O)C=C(c2cn[nH]c2)c2cc3nccc(Nc4ccc5scnc5c4)c3cc21 [Compound A30] | 97 |
| CC1(C)C(=O)c2cc3nccc(Nc4cc(O)ccc4F)c3cc2S1(=O)=O [Compound B14] | 320 |
| O=S1(=O)C=C(C2CC2)c2cc3nccc(Nc4ccn5ccnc5c4)c3cc21 [Compound A104] | 12000 |
| O=S1(=O)CC2(CCCO2)c2cc3nccc(Nc4ccc5scnc5c4)c3cc21 (stereo not shown) [Compound B27] | 2200 |

Same assay, conditions: Homo sapiens, compound at 20 μM, TNF-α (40 ng/mL), Smac mimetic (100 nM), z-VAD (20 μM), 40 h, read-out: HT-29(20 μM) Survival

| Compound | viability at 20 µM [%] |
| --- | --- |
| CC1=C(C)S(=O)(=O)c2cc3c(Nc4n[nH]c5ccc(F)cc45)ccnc3cc21 [Compound A84] | 18.1 |
| N#Cc1cc(Nc2ccnc3cc4c(cc23)S(=O)(=O)C=C4C2CC2)ccc1O [Compound A98] | 14.8 |
| CC1=Cc2cc3nccc(Nc4ccc5c(c4)CNCC5)c3cc2S1(=O)=O [Compound A41] | 9.8 |
| CC1=Cc2cc3nccc(Nc4cc(N)ccc4C)c3cc2S1(=O)=O [Compound A49] | 60.3 |
| CC1=C(C)S(=O)(=O)c2cc3c(Nc4cc(O)ccc4C)ccnc3cc21 [Compound A88] | 41.3 |
| CC1=Cc2cc3nccc(Nc4ccc(O)c(Cl)c4)c3cc2S1(=O)=O [Compound A55] | 25.6 |
| CC1(C)C(=O)c2c(cc3c(Nc4ccc5scnc5c4)ccnc3c2C2CC2)S1(=O)=O [Compound B12, 8-(benzo[d]thiazol-5-ylamino)-4-cyclopropyl-2,2-dimethylthieno[2,3-g]quinolin-3(2H)-one 1,1-dioxide] | 10.3 |
| O=S1(=O)C=Cc2cc3nccc(Nc4ccc5scnc5c4)c3c(O)c21 [Compound A109] | 25 |
| CC1=Cc2cc3nccc(Nc4cc(O)cc(C#N)c4)c3cc2S1(=O)=O [Compound A61] | 29.2 |
| CC1=CS(=O)(=O)c2cc3c(Nc4cc(O)ccc4C)ccnc3cc21 [Compound A76] | 33.8 |
| CC1=Cc2cc3nccc(Nc4ccc(O)c(Br)c4)c3cc2S1(=O)=O [Compound A56] | 23.2 |
| CC1=Cc2cc3nccc(Nc4ccc(O)cc4C)c3cc2S1(=O)=O [Compound A51] | 16.1 |
| CC1c2cc3nccc(Nc4ccc5scnc5c4)c3cc2S(=O)(=O)C1(C)CC1CC1 (stereo not shown) [Compound B7] | 19.1 |
| CN(C)CCOC1=CS(=O)(=O)c2cc3c(Nc4ccc5scnc5c4)ccnc3cc21 [Compound A112] | 37.2 |
| CC1=Cc2cc3nccc(Nc4ccn5ncnc5c4)c3cc2S1(=O)=O [Compound A69] | 10.5 |
| CC1=Cc2cc3nccc(Nc4ccc5cn[nH]c5c4)c3cc2S1(=O)=O [Compound A35] | 33 |
| CC1=CS(=O)(=O)c2cc3c(Nc4ccc(O)cc4C)ccnc3cc21 [Compound A80] | 14.4 |
| CC1=Cc2cc3nccc(Nc4cc(CN)ccc4C)c3cc2S1(=O)=O [Compound A50, 8-((5-(aminomethyl)-2-methylphenyl)amino)-2-methylthieno[2,3-g]quinoline 1,1-dioxide] | 17.9 |
| CC1=Cc2cc3nccc(Nc4ccc5[nH]nnc5c4)c3cc2S1(=O)=O [Compound A39] | 63.5 |
| CC(=O)Nc1ccc(C)c(Nc2ccnc3cc4c(cc23)S(=O)(=O)C(C)=C4C)c1 [Compound A86] | 20.5 |
| O=C1c2c(cc3c(Nc4ccc5scnc5c4)ccnc3c2Cl)S(=O)(=O)C12CC=CC2 [Compound B21] | 4.9 |
| CC1=CS(=O)(=O)c2cc3c(Nc4n[nH]c(C)c4C)ccnc3cc21 [Compound A75] | 32.3 |
| N#Cc1cccc(Nc2ccnc3cc4c(cc23)S(=O)(=O)C=C4C2CC2)c1 [Compound A97] | 22.5 |
| CC1=C(C)S(=O)(=O)c2cc3c(Nc4cc(N)ccc4C)ccnc3cc21 [Compound A87] | 15.5 |
| CC1=CS(=O)(=O)c2cc3c(Nc4ccc(O)cc4F)ccnc3cc21 [Compound A81] | 28.8 |
| CC1(O)c2cc3nccc(Nc4ccc5scnc5c4)c3cc2S(=O)(=O)C1(C)C (stereo not shown) [Compound B10, 8-(benzo[d]thiazol-5-ylamino)-3-hydroxy-2,2,3-trimethyl-2,3-dihydrothieno[2,3-g]quinoline 1,1-dioxide] | 36.4 |
| O=C1c2cc3nccc(Nc4ccc5scnc5c4)c3cc2S(=O)(=O)C12CC=CC2 [Compound B22] | 23.5 |
| CC(=O)Nc1ccc(C)c(Nc2ccnc3cc4c(cc23)S(=O)(=O)C=C4C)c1 [Compound A77] | 12.9 |
| CC1(C)C(=O)c2cc3nccc(Nc4ccc(O)c(C#N)c4)c3cc2S1(=O)=O [Compound B17] | 22.8 |
| Nc1cncc(Nc2ccnc3cc4c(cc23)S(=O)(=O)C=C4C2CC2)c1 [Compound A103] | 46.1 |

System: MEF cells
Experiment: MEF cell viability (necroptosis) assay
Assay type: cell-based
Conditions: Mus musculus, TNF-α (40 ng/mL), Smac mimetic (100 nM), z-VAD (20 μM), 12 h
Experimental: as §1, with “MEF cells” for “Human colon cancer HT-29 cells were used in a necroptosis assay. For this assay, HT-29 cells”, “96-well plate.” for “96-well plates.”, “for 12” for “for 40”, “cell survival” for “cell viability”, “FIG. 2” for “FIG. 1”, “compound A9.” for “compound A16.”

| Compound | EC50 [nM] |
| --- | --- |
| COCCOC1=CS(=O)(=O)c2cc3c(Nc4ccc5scnc5c4)ccnc3cc21 [Compound A17] | 300 |
| O=S1(=O)C=C(c2ccccc2)c2cc3nccc(Nc4ccc5scnc5c4)c3cc21 [Compound A22] | 830 |
| CC(C)OC1=CS(=O)(=O)c2cc3c(Nc4ccc5scnc5c4)ccnc3cc21 [Compound A14] | 290 |
| CC1(C)C(=O)c2cc3nccc(Nc4ccc5scnc5c4)c3cc2S1(=O)=O [Compound B4, 8-(benzo[d]thiazol-5-ylamino)-2,2-dimethylthieno[2,3-g]quinolin-3(2H)-one 1,1-dioxide] | 9330 |
| Cn1ccc(C2=CS(=O)(=O)c3cc4c(Nc5ccc6scnc6c5)ccnc4cc32)n1 [Compound A33] | 380 |
| C=C1c2cc3nccc(Nc4ccc5scnc5c4)c3cc2S(=O)(=O)C1(C)C [Compound B8, 8-(benzo[d]thiazol-5-ylamino)-2,2-dimethyl-3-methylene-2,3-dihydrothieno[2,3-g]quinoline 1,1-dioxide] | 1770 |

System: L929 cells
Experiment: L929 cell viability (necroptosis) assay
Assay type: cell-based
Conditions: Mus musculus, TNF-α (40 ng/mL), z-VAD (20 μM), 16 h
Experimental: L929 cells were added to 96-well plate. The compounds at different concentrations (0.3, 1.0, 3.0, 10.0, 20.0 μM) were then preprocessed for two hours. TNF-α (40 ng/mL), and z-VAD (20 μM) were added, and the mixture was incubated for 16 h. Quantitative analysis of cell survival was conducted. DMSO pretreatment was used as a negative control. Concentration for 50% of maximal effect was calculated according to the curve of the survival rate measured at different concentrations. FIG. 3 depicts the EC50 curves of compound A3.

| Compound | EC50 [nM] |
| --- | --- |
| CC1=CS(=O)(=O)c2cc3c(Nc4ccc5scnc5c4)ccnc3cc21 [Compound A7] | 240 |
